Test results published in patent US8497278B2, “Imidazo[1,2-a]pyridine compounds” (priority 2008, dated 2013).

Legend:
[1] = tested on: central benzodiazepine receptors; assay: Central benzodiazepine receptor binding (test of Speth et al.); conditions: 1000 nM of the compound
Procedure, shortened: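 Radioligand binding by the Speth et al. method. Specific binding is total minus nonspecific binding, the latter measured with excess unlabelled ligand. Compounds screened at 1.0E-09, 1.0E-07 and 1.0E-05 M in single determination; values given as percent inhibition at 1000 nM compound.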

[2] = molecular target: T1, α1 subtype containing GABA-A receptors (Homo sapiens, UniProt P14867+P18507); assay: Two-electrode voltage clamp electrophysiology in Xenopus oocytes, potentiation of GABA EC20 response, α1; type: cell-based; conditions: 100 nM compound; for activation at 0.1 µM: read-out: Percentage of potentiation alpha1
T1 construct: expressed in transfected cells; host or cells: Xenopus laevis oocytes, cRNA injected
T1 sequence (P14867 28-456): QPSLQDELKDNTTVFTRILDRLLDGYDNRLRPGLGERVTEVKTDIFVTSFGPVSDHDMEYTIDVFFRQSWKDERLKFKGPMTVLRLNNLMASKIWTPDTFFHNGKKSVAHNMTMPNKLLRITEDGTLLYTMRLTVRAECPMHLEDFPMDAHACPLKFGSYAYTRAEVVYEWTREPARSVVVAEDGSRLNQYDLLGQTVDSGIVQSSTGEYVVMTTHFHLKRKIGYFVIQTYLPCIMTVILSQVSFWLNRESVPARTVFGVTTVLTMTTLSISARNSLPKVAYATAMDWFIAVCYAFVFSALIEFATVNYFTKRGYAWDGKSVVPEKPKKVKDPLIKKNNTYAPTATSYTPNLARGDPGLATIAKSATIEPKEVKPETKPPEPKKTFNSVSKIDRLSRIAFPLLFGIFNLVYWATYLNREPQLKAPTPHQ
T1 sequence (P28472 26-473 partner): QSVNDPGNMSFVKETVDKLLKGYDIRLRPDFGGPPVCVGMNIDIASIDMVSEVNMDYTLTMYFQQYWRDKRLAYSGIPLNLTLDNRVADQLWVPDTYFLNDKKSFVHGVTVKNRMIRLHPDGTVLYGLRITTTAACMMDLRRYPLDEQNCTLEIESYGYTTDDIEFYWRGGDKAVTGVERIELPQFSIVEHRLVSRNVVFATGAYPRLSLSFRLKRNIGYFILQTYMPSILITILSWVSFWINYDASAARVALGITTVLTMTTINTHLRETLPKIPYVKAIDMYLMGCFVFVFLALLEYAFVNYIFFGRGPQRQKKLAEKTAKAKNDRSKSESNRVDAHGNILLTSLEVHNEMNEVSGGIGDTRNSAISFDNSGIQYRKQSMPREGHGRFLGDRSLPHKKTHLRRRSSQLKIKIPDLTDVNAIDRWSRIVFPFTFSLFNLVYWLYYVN
T1 sequence (P18507 40-475): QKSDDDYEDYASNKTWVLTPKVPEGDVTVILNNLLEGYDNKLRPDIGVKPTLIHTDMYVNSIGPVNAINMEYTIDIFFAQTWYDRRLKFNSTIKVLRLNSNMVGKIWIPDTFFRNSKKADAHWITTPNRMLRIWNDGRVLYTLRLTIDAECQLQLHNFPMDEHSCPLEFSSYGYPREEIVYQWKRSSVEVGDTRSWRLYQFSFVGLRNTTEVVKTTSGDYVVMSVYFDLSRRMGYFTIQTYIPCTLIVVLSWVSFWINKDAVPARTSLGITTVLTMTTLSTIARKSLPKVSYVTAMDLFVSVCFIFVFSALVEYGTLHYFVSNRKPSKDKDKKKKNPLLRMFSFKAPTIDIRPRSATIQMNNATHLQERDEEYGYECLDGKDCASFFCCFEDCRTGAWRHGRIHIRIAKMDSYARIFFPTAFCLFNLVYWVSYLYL
Procedure, shortened: (§1)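 Xenopus oocytes expressing human α1, α2, α3 or α5 with β3 and γ2L subunits were voltage-clamped at −80 mV in ND96, pH 7.5. Potentiation of the GABA EC20 (60 μM) response by test compounds at 100 nM was measured, with one compound per oocyte. Oocytes showing low current or poor γ2L incorporation, judged by 1 μM chlordiazepoxide response, were excluded.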

[3] = molecular target: T2, α2 subtype containing GABA-A receptors (Homo sapiens, UniProt P18507+P47869); assay: Two-electrode voltage clamp electrophysiology in Xenopus oocytes, potentiation of GABA EC20 response, α2; type: cell-based; conditions: 100 nM compound; for activation at 0.1 µM: read-out: Percentage of potentiation alpha2
T2 construct: expressed in transfected cells; host or cells: Xenopus laevis oocytes, cRNA injected
T2 sequence (P47869 29-451): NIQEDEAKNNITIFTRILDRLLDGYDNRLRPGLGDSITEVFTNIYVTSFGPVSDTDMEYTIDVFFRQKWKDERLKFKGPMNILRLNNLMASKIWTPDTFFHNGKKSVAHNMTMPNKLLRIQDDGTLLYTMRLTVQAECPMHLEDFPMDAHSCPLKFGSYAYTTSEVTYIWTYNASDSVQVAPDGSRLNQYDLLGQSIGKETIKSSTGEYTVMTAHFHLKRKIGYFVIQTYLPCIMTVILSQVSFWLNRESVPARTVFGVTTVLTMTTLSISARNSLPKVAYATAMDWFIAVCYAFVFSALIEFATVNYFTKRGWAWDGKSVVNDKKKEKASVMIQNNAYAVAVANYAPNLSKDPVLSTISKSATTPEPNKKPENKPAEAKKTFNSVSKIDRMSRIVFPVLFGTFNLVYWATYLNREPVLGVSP
T2 sequence (P28472 26-473 partner): as the sequence (P28472 26-473 partner) above
T2 sequence (P18507 40-475): as the sequence (P18507 40-475) above
Procedure, shortened: as §1

| SMILES | % Inhibition at 1000 nM for CBZD [1] | activation at 0.1 µM [2] | activation at 0.1 µM [3] | Percentage of potentiation alpha1 [2] | Percentage of potentiation alpha2 [3] |
| --- | --- | --- | --- | --- | --- |
| O=c1ccn(Cc2c(-c3ccc(Cl)cc3)nc3ccccn23)c(=O)[nH]1 [Compound 123, 1-((2-(4-chlorophenyl)imidazo[1,2-a]pyridin-3-yl)methyl)pyrimidine-2,4(1H,3H)-dione] | ++ (percentage of inhibition of central BZD site binding is greater than 80% in the presence of 1000 nM of the compound) | 10 to 50% | 10 to 50% | – | – |
| Cn1c(=O)ccn(Cc2c(-c3ccc(Cl)cc3)nc3ccccn23)c1=O [Compound 125, 1-((2-(4-chlorophenyl)imidazo[1,2-a]pyridin-3-yl)methyl)-3-methylpyrimidine-2,4(1H,3H)-dione] | ++ (percentage of inhibition of central BZD site binding is greater than 80% in the presence of 1000 nM of the compound) | -10 to 10% | 10 to 50% | – | – |
| O=c1[nH]c(=O)n(Cc2c(-c3ccc(Cl)cc3)nc3ccccn23)cc1F [Compound 127, 1-((2-(4-chlorophenyl)imidazo[1,2-a]pyridin-3-yl)methyl)-5-fluoropyrimidine-2,4(1H,3H)-dione] | + (percentage of inhibition of central BZD site binding is greater than 50% but less than 80% in the presence of 1000 nM of the compound) | -10 to 10% | 10 to 50% | – | – |
| O=c1nc(N2CCCC2)ccn1Cc1c(-c2ccc(Cl)cc2)nc2ccccn12 [Compound 136, 1-((2-(4-chlorophenyl)imidazo[1,2-a]pyridin-3-yl)methyl)-4-(pyrrolidin-1-yl)pyrimidin-2(1H)-one] | ++ (percentage of inhibition of central BZD site binding is greater than 80% in the presence of 1000 nM of the compound) | 10 to 50% | ≥ 50% | – | – |
| CCOc1ccn(Cc2c(-c3ccc(Cl)cc3)nc3ccccn23)c(=O)n1 [Compound 137, 1-((2-(4-chlorophenyl)imidazo[1,2-a]pyridin-3-yl)methyl)-4-ethoxypyrimidin-2(1H)-one] | ++ (percentage of inhibition of central BZD site binding is greater than 80% in the presence of 1000 nM of the compound) | 10 to 50% | 10 to 50% | – | – |
| O=c1nc(-n2cncn2)ccn1Cc1c(-c2ccc(Cl)cc2)nc2ccccn12 [Compound 138, 1-((2-(4-chlorophenyl)imidazo[1,2-a]pyridin-3-yl)methyl)-4-(1H-1,2,4-triazol-1-yl)pyrimidin-2(1H)-one] | ++ (percentage of inhibition of central BZD site binding is greater than 80% in the presence of 1000 nM of the compound) | 10 to 50% | 10 to 50% | – | – |
| Cc1ccc(-c2nc3ccc(C)cn3c2CNc2nccs2)cc1 [Compound 150, N-((6-methyl-2-p-tolylH-imidazo[1,2-a]pyridin-3-yl)methyl)thiazole-2-amine] | ++ (percentage of inhibition of central BZD site binding is greater than 80% in the presence of 1000 nM of the compound) | – | – | 0 (percentage of potentiation is between about 10% to about −10%) | + (percentage of potentiation is greater than or equal to 10% but less than 50% in the presence of 100 nM of the compound) |
| Cc1cc(Cl)nc(NCc2c(-c3ccc(Cl)cc3)nc3ccccn23)n1 [Compound 159, 4-chloro-N-((2-(4-chlorophenyl)imidazo[1,2-a]pyridin-3-yl)methyl)-6-methylpyrimidin-2-amine] | ++ (percentage of inhibition of central BZD site binding is greater than 80% in the presence of 1000 nM of the compound) | 10 to 50% | 10 to 50% | – | – |
| Cc1ccc2nc(-c3ccc(F)cc3)c(CNc3nc(C)cc(Cl)n3)n2c1 [Compound 160, 4-chloro-N-((2-(4-fluorophenyl)-6-methylimidazo[1,2-a]pyridin-3-yl)methyl)-6-methylpyrimidin-2-amine] | ++ (percentage of inhibition of central BZD site binding is greater than 80% in the presence of 1000 nM of the compound) | 10 to 50% | 10 to 50% | – | – |
| COc1ccc(NCc2c(-c3ccccc3)nc3ccc(Cl)cn23)nn1 [Compound 165, N-((6-chloro-2-phenylimidazo[1,2-a]pyridin-3-yl)methyl)-6-methoxypyridazin-3-amine] | ++ (percentage of inhibition of central BZD site binding is greater than 80% in the presence of 1000 nM of the compound) | 10 to 50% | 10 to 50% | – | – |
| Cc1ccc(-c2nc3ccc(C)cn3c2CSc2nnc(C)s2)cc1 [Compound 179, 6-Methyl-3-(5-methyl-[1,3,4]thiadiazol-2-ylsulfanylmethyl)-2-p-tolyl-imidazo[1,2-a]pyridine] | ++ (percentage of inhibition of central BZD site binding is greater than 80% in the presence of 1000 nM of the compound) | -10 to 10% | -10 to 10% | – | – |
| CN1CC[C@H](Oc2ccnc(NCc3c(-c4ccc(F)cc4)nc4ccc(Cl)cn34)n2)C1 [Compound 184, (S)—N-((6-chloro-2-(4-fluorophenyl)imidazo[1,2-a]pyridin-3-yl)methyl)-4-(1-methylpyrrolidin-3-yloxy)pyrimidin-2-amine] | ++ (percentage of inhibition of central BZD site binding is greater than 80% in the presence of 1000 nM of the compound) | 10 to 50% | 10 to 50% | – | – |
| CC1(O)CCN(c2ccnc(NCc3c(-c4ccccc4)nc4ccc(Cl)cn34)n2)CC1 [Compound 187, 1-(2-((6-chloro-2-phenylimidazo[1,2-a]pyridin-3-yl)methylamino)pyrimidin-4-yl)-4-methylpiperidin-4-ol] | ++ (percentage of inhibition of central BZD site binding is greater than 80% in the presence of 1000 nM of the compound) | ≤ -10% | -10 to 10% | – | – |
| OC[C@H]1CCCN1c1ccnc(NCc2c(-c3ccccc3)nc3ccc(Cl)cn23)n1 [Compound 188, (R)-(1-(2-((6-chloro-2-phenylimidazo[1,2-a]pyridin-3-yl)methylamino)pyrimidin-4-yl)pyrrolidin-2-yl)methanol] | ++ (percentage of inhibition of central BZD site binding is greater than 80% in the presence of 1000 nM of the compound) | ≥ 50% | ≥ 50% | – | – |
| OC1CCN(c2ccnc(NCc3c(-c4ccc(F)cc4)nc4ccc(Cl)cn34)n2)C1 (stereo not drawn) [Compound 189, 1-(2-((6-chloro-2-(4-fluorophenyl)imidazo[1,2-a]pyridin-3-yl)methylamino)pyrimidin-4-yl)pyrrolidin-3-ol] | ++ (percentage of inhibition of central BZD site binding is greater than 80% in the presence of 1000 nM of the compound) | ≥ 50% | ≥ 50% | – | – |
| OC1CCN(c2cncc(Cc3c(-c4ccc(Cl)cc4)nc4ccccn34)n2)C1 (stereo not drawn) [Compound 191, 1-(6-((2-(4-chlorophenyl)imidazo[1,2-a]pyridin-3-yl)methyl)pyrazin-2-yl)pyrrolidin-3-ol] | ++ (percentage of inhibition of central BZD site binding is greater than 80% in the presence of 1000 nM of the compound) | 10 to 50% | 10 to 50% | – | – |
| CN(CCO)c1cncc(Cc2c(-c3ccc(Cl)cc3)nc3ccccn23)n1 [Compound 192, 2-((6-((2-(4-chlorophenyl)imidazo[1,2-a]pyridin-3-yl)methyl)pyrazin-2-yl)(methyl)amino)ethanol] | ++ (percentage of inhibition of central BZD site binding is greater than 80% in the presence of 1000 nM of the compound) | 10 to 50% | 10 to 50% | – | – |
| CNNc1cncc(Cc2c(-c3ccc(Cl)cc3)nc3ccccn23)n1 [Compound 193, 2-(4-chlorophenyl)-3-((6-(2-methylhydrazinyl)pyrazin-2-yl)methyl)imidazo[1,2-a]pyridine] | ++ (percentage of inhibition of central BZD site binding is greater than 80% in the presence of 1000 nM of the compound) | 10 to 50% | 10 to 50% | – | – |
| Fc1ccc(-c2nc3ccc(Cl)cn3c2CNc2nccc(C3CCCN3)n2)cc1 (stereo not drawn) [Compound 195] | ++ (percentage of inhibition of central BZD site binding is greater than 80% in the presence of 1000 nM of the compound) | ≥ 50% | ≥ 50% | – | – |
| CCNCc1ccnc(NCc2c(-c3ccc(F)cc3)nc3ccc(C)cn23)n1 [Compound 196, 4-((ethylamino)methyl)-N-((2-(4-fluorophenyl)-6-methylimidazo[1,2-a]pyridin-3-yl)methyl)pyrimidin-2-amine] | ++ (percentage of inhibition of central BZD site binding is greater than 80% in the presence of 1000 nM of the compound) | ≥ 50% | ≥ 50% | – | – |
| Fc1ccc(-c2nc3ccc(Cl)cn3c2CNc2nccc(CN3CCCC3)n2)cc1 [Compound 198, N-((6-chloro-2-(4-fluorophenyl)imidazo[1,2-a]pyridin-3-yl)methyl)-4-(pyrrolidin-1-ylmethyl)pyrimidin-2-amine] | ++ (percentage of inhibition of central BZD site binding is greater than 80% in the presence of 1000 nM of the compound) | ≥ 50% | ≥ 50% | – | – |
